From PubChem BioAssay (NCI) come the findings set out here.

Test systems include HL-60(TB) leukemia; IGROV1 ovarian; K-562 leukemia; LOX IMVI melanoma; MALME-3M melanoma; RXF 393 renal; SK-MEL-2 melanoma; SK-OV-3 ovarian; SW-620 colon; DU-145 prostate.
Assay in all cases: NCI-60 cell line screen, 48 h

Each structure is given as a SMILES string.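 Where inhibition never reached the appropriate level, the endpoint shown equals the highest concentration tested. Otherwise, values were interpolated linearly from a five-concentration, 48-hour dose response in 96-well plates. GI50 is the concentration that inhibits growth by half. At the TGI there is no net growth.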 Some results are limits rather than exact numbers.

For `Cn1cc(-c2ccc(-c3ccc(C4=NC5(CC5)C(=O)N4C[C@@H]4CCN(C(=O)C5CC5)C4)cc3)cc2)cn1`, the GI50 with HL-60(TB) leukemia was 0.0615 µM; with IGROV1 ovarian it was 28.7 µM; in the experiment with K-562 leukemia, 7.11 µM; in the experiment on LOX IMVI melanoma, 1.47 µM; in the experiment on MALME-3M melanoma, 18.6 µM; in the experiment with RXF 393 renal it was 15.9 µM. Moreover, the figures for the GI50 with SK-MEL-2 melanoma, with SK-OV-3 ovarian and in the experiment on SW-620 colon were 24.8 µM, 29.9 µM and 18.2 µM, respectively. Besides, the TGI in the experiment on HL-60(TB) leukemia was 25.9 µM; in the experiment on IGROV1 ovarian, greater than 100 µM; with K-562 leukemia it was greater than 100 µM; with LOX IMVI melanoma it was 18 µM; with MALME-3M melanoma, 40.9 µM; in the experiment on RXF 393 renal it was 33.3 µM. In addition, the TGI in the experiment on SK-MEL-2 melanoma, in the experiment on SK-OV-3 ovarian and in the experiment on SW-620 colon was greater than 100 µM each time.

`N#C/C(=C\c1ccc(Br)cc1)n1nnc2ccc(F)cc21`: the GI50 with HL-60(TB) leukemia is 0.702 µM; in the experiment with IGROV1 ovarian, 0.569 µM; in the experiment on K-562 leukemia it was 0.332 µM; in the experiment with LOX IMVI melanoma, 0.347 µM; in the experiment with MALME-3M melanoma, 1.44 µM; in the experiment on RXF 393 renal, 0.465 µM. The GI50 with SK-MEL-2 melanoma is 1.56 µM; with SK-OV-3 ovarian, 4.85 µM; with SW-620 colon it was 0.447 µM. Further, the TGI in the experiment with HL-60(TB) leukemia was 5.23 µM; in the experiment with IGROV1 ovarian it was 2.25 µM; in the experiment with K-562 leukemia, greater than 100 µM; with LOX IMVI melanoma, 1.28 µM; in the experiment on MALME-3M melanoma, 4.68 µM; in the experiment with RXF 393 renal, 1.86 µM. In addition, the TGI with SK-MEL-2 melanoma is 4.98 µM; in the experiment on SK-OV-3 ovarian, greater than 100 µM; in the experiment with SW-620 colon, 2.34 µM.

Regarding `O=Cc1c(O)c(C(=O)Nc2ccc3[nH]c(=O)[nH]c3c2)cc2ccccc12`, the TGI in the experiment with HL-60(TB) leukemia, with IGROV1 ovarian, with K-562 leukemia, in the experiment on LOX IMVI melanoma, with MALME-3M melanoma and in the experiment with RXF 393 renal was greater than 100 µM in each case. Further, the TGI in the experiment with SK-MEL-2 melanoma, in the experiment with SK-OV-3 ovarian and in the experiment on SW-620 colon was greater than 100 µM in each case.

Take `O=c1cccccc1[O-].O=c1cccccc1[O-].O=c1cccccc1[O-].[La+3]`: the TGI was 30.9 µM in the experiment with HL-60(TB) leukemia; 75.8 µM with IGROV1 ovarian; greater than 100 µM in the experiment on K-562 leukemia; greater than 100 µM in the experiment with LOX IMVI melanoma; 31.9 µM in the experiment with MALME-3M melanoma; 31.9 µM in the experiment with RXF 393 renal. Further, the TGI in the experiment with SK-MEL-2 melanoma is 48 µM; with SK-OV-3 ovarian, 86.9 µM; in the experiment with SW-620 colon, greater than 100 µM.

With `O=c1c(-c2ccccc2)coc2cc(OC/C(=N/O)c3ccccc3)ccc12`, the GI50 in the experiment with DU-145 prostate is 29 µM; in the experiment with HL-60(TB) leukemia, 21.3 µM; in the experiment on IGROV1 ovarian, 17.5 µM; in the experiment on K-562 leukemia it was 11.3 µM; in the experiment on LOX IMVI melanoma, 18.4 µM; in the experiment with MALME-3M melanoma, 10.4 µM. The GI50 is 25.9 µM with SK-OV-3 ovarian and 20.2 µM in the experiment on SW-620 colon. The TGI is 94.1 µM in the experiment with DU-145 prostate; 95.9 µM with HL-60(TB) leukemia; greater than 100 µM with IGROV1 ovarian; greater than 100 µM in the experiment on K-562 leukemia; 37.4 µM in the experiment on LOX IMVI melanoma; 28.3 µM in the experiment with MALME-3M melanoma. The figures for the TGI in the experiment with SK-OV-3 ovarian and in the experiment on SW-620 colon were 88.5 µM and 64.8 µM, respectively.

As to `CN1C(=O)C2C(C1=O)C1(O)c3ccccc3C2(N)c2ccccc21` (stereo not given), the TGI in the experiment with HL-60(TB) leukemia, in the experiment on IGROV1 ovarian, in the experiment with K-562 leukemia, in the experiment with LOX IMVI melanoma, in the experiment with MALME-3M melanoma and with RXF 393 renal was greater than 100 µM each time. For the same compound, the TGI with SK-MEL-2 melanoma, in the experiment with SK-OV-3 ovarian and in the experiment on SW-620 colon was greater than 100 µM throughout.

`COc1ccc(OCC(=O)O)c(C(=O)CCC(=O)O)c1`: the TGI in the experiment with HL-60(TB) leukemia, with IGROV1 ovarian, with K-562 leukemia, in the experiment on LOX IMVI melanoma, in the experiment with MALME-3M melanoma and with RXF 393 renal was greater than 100 µM throughout. In addition, the TGI with SK-MEL-2 melanoma, in the experiment on SK-OV-3 ovarian and in the experiment on SW-620 colon was greater than 100 µM each time.

With `CCN(CC)c1ccc(N=Nc2ccc(-c3nc4ccc[n+](C)c4o3)cc2)cc1`, the TGI in the experiment on HL-60(TB) leukemia is 7.32 µM; in the experiment with IGROV1 ovarian, 30.8 µM; in the experiment with K-562 leukemia, 12.4 µM; in the experiment on LOX IMVI melanoma it was 18.5 µM; in the experiment on MALME-3M melanoma it was 4.31 µM; with RXF 393 renal it was 22.6 µM. Also, the TGI in the experiment on SK-MEL-2 melanoma is 25.5 µM; with SK-OV-3 ovarian, 34.1 µM; in the experiment on SW-620 colon it was 16.2 µM.

For `COC(=O)Nc1nc2ccc(Br)cc2[nH]1`, the TGI is 90 µM in the experiment with HL-60(TB) leukemia; greater than 100 µM with IGROV1 ovarian; greater than 100 µM with K-562 leukemia; greater than 100 µM in the experiment with LOX IMVI melanoma; greater than 100 µM with MALME-3M melanoma; 67.2 µM in the experiment with RXF 393 renal. Besides, the TGI in the experiment with SK-MEL-2 melanoma was 62.6 µM; in the experiment on SK-OV-3 ovarian, 67.9 µM; in the experiment with SW-620 colon, greater than 100 µM.

With `CCOC(=O)c1[nH]c(COC(C)=O)c2c1CCCCCCCCCC2`, the TGI in the experiment with HL-60(TB) leukemia, in the experiment on IGROV1 ovarian, with K-562 leukemia, in the experiment with LOX IMVI melanoma, with MALME-3M melanoma and with RXF 393 renal was greater than 100 µM in each case. In addition, the TGI in the experiment on SK-MEL-2 melanoma, in the experiment with SK-OV-3 ovarian and in the experiment on SW-620 colon was greater than 100 µM throughout.
